Source: the NIST ThermoML archive (doi:10.1021/je049622g)

Assay: xn = mol fraction of the nth substance listed
Settings: 311 K, Fluid (supercritical or subcritical phases), Pulse-echo method

CCCC [butane] + C
Settings | speed of sound [m/s]
2068 kPa, x2 = 0.894 | 381.6
2758 kPa, x2 = 0.894 | 378.5
3447 kPa, x2 = 0.894 | 375.5
3930 kPa, x2 = 0.158 | 760.1
3999 kPa, x2 = 0.158 | 760.7
4137 kPa, x2 = 0.158 | 762.3
4137 kPa, x2 = 0.894 | 372.7
4826 kPa, x2 = 0.158 | 778.7
4826 kPa, x2 = 0.894 | 370.1
5516 kPa, x2 = 0.158 | 793.5
5516 kPa, x2 = 0.894 | 368
6205 kPa, x2 = 0.158 | 805.6
6205 kPa, x2 = 0.894 | 366.4
6895 kPa, x2 = 0.158 | 817.6
6895 kPa, x2 = 0.894 | 365.2
7584 kPa, x2 = 0.894 | 364.8
8274 kPa, x2 = 0.894 | 365.1
8963 kPa, x2 = 0.894 | 366
9653 kPa, x2 = 0.894 | 367.8
10342 kPa, x2 = 0.158 | 866
10342 kPa, x2 = 0.894 | 370.3
11032 kPa, x2 = 0.894 | 373.7
11721 kPa, x2 = 0.894 | 378
12411 kPa, x2 = 0.894 | 383.1
13100 kPa, x2 = 0.894 | 388.9
13128 kPa, x2 = 0.724 | 314.6
13148 kPa, x2 = 0.724 | 316.5
13231 kPa, x2 = 0.724 | 323.7
13307 kPa, x2 = 0.724 | 329.7
13472 kPa, x2 = 0.724 | 344
13790 kPa, x2 = 0.158 | 906.3
13790 kPa, x2 = 0.894 | 395.6
13845 kPa, x2 = 0.724 | 366.1
14479 kPa, x2 = 0.724 | 395.6
14479 kPa, x2 = 0.894 | 402.9
15168 kPa, x2 = 0.724 | 420.7
15168 kPa, x2 = 0.894 | 410.8
15858 kPa, x2 = 0.724 | 443.6
15858 kPa, x2 = 0.894 | 419.4
16547 kPa, x2 = 0.724 | 464.8
16547 kPa, x2 = 0.894 | 428.4
17237 kPa, x2 = 0.724 | 484.4
17237 kPa, x2 = 0.894 | 438
